Measurements published in PMC6792350 (Environmental Health Perspectives, 2019).

Assays:
[1] = Population semiphysiologically based 9-compartment TK model (NLME) of plasma and urine data in piglets; conditions: for tvK25, rate constant liver to plasma for the glucuronide, Mean / tvK50, glucuronide elimination rate constant from plasma to urine, Mean / tvK56, distribution rate constant, Mean / tvK65, distribution rate constant, Mean / tvK105, rate constant of glucuronide formed by enterocytes absorbed into the systemic circulation, Mean / tvV, volume of the central compartment, Mean: bootstrap mean; for tvK25, rate constant liver to plasma for the glucuronide, Median / tvK50, glucuronide elimination rate constant from plasma to urine, Median / tvK56, distribution rate constant, Median / tvK65, distribution rate constant, Median / tvK105, rate constant of glucuronide formed by enterocytes absorbed into the systemic circulation, Median / tvV, volume of the central compartment, Median: bootstrap median; for mean volume of the central compartment: pig, in vivo; for tvV, volume of the central compartment, Mean / tvV, volume of the central compartment, Median: population primary parameter
Experimental: The NLME model was therefore developed by combining the plasma and urinary data sets from the five TK experiments carried out in piglets, except for the urinary BPA concentration obtained after oral administration of BPA.
Different compartmental models and submodels were tested and compared using the likelihood ratio test (LRT). The primary parameters of the model, namely the volumes of distribution ( VBPA , VBPAG , VBPS , VBPSG ) and the first-order rate constants ( Kij ) and their associated precisions [standard error (SE)] were estimated by minimizing an objective function value (OFV) expressed as minus twice the log of the likelihood estimation ( −2LL ).
The between-subject variability (BSV) of the parameters was evaluated using the exponential model θparameter_i=θtv_parameter×exp(ηi) , where θparameter_i is the parameter estimated for the i^th individual, θtv_parameter is the typical population value of the parameter, and ηi is the deviation associated with the i^th individual from the corresponding value of the parameter at the population level. The distribution of ηi was assumed to be normal with a mean of 0 and a variance ω² . The BSV was reported as a coefficient of variation (CV) in the original scale CV(%)=100× exp (ω^2)−1 .
The residual variance was modeled using a combined additive and proportional error model Cobsij=Cpredij(1+ε1ij)+ε2ij where Cobsij and Cpredij are respectively the j^th observed and predicted concentrations for the i^th individual and ε1ij and ε2ij the multiplicative and additive residual errors.
The bootstrap tool (20 replicates) was used to evaluate the mean, median, SE, and coefficient of variation of the parameter estimates. The predictive ability of the model was checked graphically by plotting Visual Predictive Check plots to compare the observed data with the selected quantiles (here 20th, 50th and 80th percentiles) of data simulated using the model and obtained from 200–1,000 replicates from each animal based on the structure of the original data (i.e., dosing, timing and number of samples).
For the LRT test, the critical value of the χ^2 distribution considered for a given nominal risk and a given number of degrees of freedom was obtained using the Excel function CHISQ.INV.RT().
Figure 1. Schematic representation of the compartmental model. […] The link between the two central compartments was modeled with a compartment (CP2) that should be viewed as the liver. […] The fraction of absorbed BPA that is not hepatically transformed reaches the CP3 via K23 . The exchanges between CP2 and CP3 are bilateral, K32 being the rate constant between CP3 and CP2 and K23 the rate constant between CP2 and CP3. […] It was assumed that no phase-two metabolite other than BPAG (BPSG) was formed.
(12) Bioavailability=K12/K12+K110+K10×(1−K25/K25+K23) with K10 , K12 , K110 , K23; K25 as defined above.

[2] = Noncompartmental toxicokinetic analysis of plasma after oral (gavage) dosing in piglets; conditions: plasma, mean±SD; for Cmax/dose: oral BPA 438 or 200 μmol/kg (n=12) or oral BPS 40 or 200 μmol/kg (n=10); for AUClast/dose / Tmax: oral BPA or BPS dosing
Experimental: Table 1 summarizes the protocol of the experiments and the plasma and urine datasets further considered for TK analyses.
For administrations by gavage, BPA powder was dissolved in ethanol–corn oil (1:9, vol:vol) at 100mg/mL (Exp. 1).
(§1) The plasma analytes concentration–time data from individual piglets were used to derive the maximum concentration (Cmax), and the time to maximum concentration (Tmax). The area under the plasma concentration–time curves from dosing time to the time of the last measurable concentration ( AUC0–tlast ) were calculated using the linear trapezoidal rule (Equation 1). (1) AUC0–tlast=∑0tlast(Ci−1+Ci/2)×(ti−ti−1) where Ci is the concentration obtained at the time i ( ti ).
(§2) The area under the plasma concentration time curve from t=0 to infinity ( AUC0–inf ) was obtained using Equation 2. (2) AUC0–inf=AUC0–tlast+AUCtlast–inf where AUCtlast–inf is the area extrapolated from the last observation to infinity, calculated according to Equation 3: (3) AUCtlast–inf=Clast/λz where Clast is the last observed quantifiable plasma concentration, and λz is the slope of the terminal phase, as estimated by linear regression using the best fit option of Phoenix®.

[3] = Cumulative urinary excretion after IV and oral dosing in piglets; conditions: for fraction of parent dose recovered in urine as glucuronide, mean±SD / fraction of parent dose recovered in urine as glucuronide, range: by 24 h
Experimental: Blood samples were collected in heparinized polypropylene tubes, immediately chilled in ice and centrifuged for 10 min at 3,000×g at 4°C, and the supernatant plasma was stored in polypropylene tubes at −20°C until assay. Total urine was filtered through a nylon mesh ( 250μm ) and collected in glass containers and chilled in ice. The volume of each urine sample and the sampling time were recorded. A urine sample was immediately chilled in ice and centrifuged for 10 min at 3,000×g at 4°C and stored at −20°C until assayed.
Analytes were quantified by Acquity UPLC-MS/MS (Waters Corporation).
All TK analyses were performed using the Phoenix® NLME (version 8.0; Pharsight Corporation). The plasma mass concentrations were converted into molar concentrations before analysis.

[4] = Noncompartmental toxicokinetic analysis of plasma after IV dosing in piglets; conditions: for time after which plasma concentrations were below the LOQ: after IV BPA and BPS administration; for time of maximal plasma glucuronide concentration: after IV BPA and BPS dosing; for Cmax/dose / AUC0-tlast/dose / Tmax: plasma, mean±SD; for Cmax/dose: IV BPA 21.9 or 20 μmol/kg (n=15) or IV BPS 20 μmol/kg (n=16), glucuronides after parent dosing; for AUC0-tlast/dose: IV BPA or BPS dosing; for Tmax: glucuronide after IV BPA or BPS dosing
Experimental: Table 1 summarizes the protocol of the experiments and the plasma and urine datasets further considered for TK analyses. A first experiment (Exp. 1) was performed in 8 male piglets age 42 d ( 20.8±1.6kg BW) to investigate oral BPA TK. […] BPA data obtained after IV BPA administrations had already been used to evaluate human BPA clearance using an allometric approach ([Collet et al. 2015]).
For the IV administrations, BPA powder was dissolved in ethanol–propylene glycol (1:49, vol:vol) at 50mg/mL (Exp.1 and 2) and in ethanol–saline (1:2, vol:vol) at 23mg/mL (Exp. 5).
During the first 24 h of sampling, the piglets were housed individually in stainless steel cages.
as §1, §2

[5] = IV BPA (n=7) or IV BPS (n=16) dosing
[6] = oral BPA (n=4) or oral BPS (n=10) dosing

With `CC(C)(c1ccc(O)cc1)c1ccc(O[C@@H]2O[C@H](C(=O)O)[C@@H](O)[C@H](O)[C@H]2O)cc1` [BPAG, Bisphenol A glucuronide] the “tvK25, rate constant liver to plasma for the glucuronide, Mean” value [1] was 137.08 h⁻¹, the “tvK50, glucuronide elimination rate constant from plasma to urine, Mean” value [1] was 2.750 h⁻¹ and the “tvK56, distribution rate constant, Mean” value [1] was 1.45 h⁻¹. For the same molecule, the “tvK65, distribution rate constant, Mean” value [1] was 0.015 h⁻¹, the “tvK105, rate constant of glucuronide formed by enterocytes absorbed into the systemic circulation, Mean” value [1] was 0.207 h⁻¹ and the “tvK25, rate constant liver to plasma for the glucuronide, Median” value [1] was 91.87 h⁻¹. The “tvK50, glucuronide elimination rate constant from plasma to urine, Median” value [1] was 2.547 h⁻¹, the “tvK56, distribution rate constant, Median” value [1] was 1.45 h⁻¹ and the “tvK65, distribution rate constant, Median” value [1] was 0.015 h⁻¹. For the same molecule, the “tvK105, rate constant of glucuronide formed by enterocytes absorbed into the systemic circulation, Median” value [1] was 0.217 h⁻¹, the “mean volume of the central compartment” value [1] was 0.11 L/kg and the “tvV, volume of the central compartment, Mean” value [1] was 0.107 L/kg. For the same molecule, the “tvV, volume of the central compartment, Median” value [1] was 0.112 L/kg, the Cmax/dose [2] was 0.58±0.34 μmol/L per μmol/kg BW and the AUClast/dose [2] was 1.75±0.73 μmol×h/L per μmol/kg BW. The Tmax [2] was 74.4 ± 64.2 min, the “fraction of parent dose recovered in urine as glucuronide, mean±SD” value (from here on “fraction of parent dose recovered … mean±SD”) [3, 5] was 97.0±27.6% and the “fraction of parent dose recovered in urine as glucuronide, range” value (from here on “fraction of parent dose recovered … range”) ([3]; IV BPA or BPS dosing) was 63.1–135.7%. For the same molecule, the “fraction of parent dose recovered … mean±SD” value [3, 6] was 62.2±15.8%, the “fraction of parent dose recovered … range” value ([3]; oral BPA or BPS dosing) was 49.5–80.2% and the “time after which plasma concentrations were below the LOQ” value [4] was 12 to 24 h. For the same molecule, the “time of maximal plasma glucuronide concentration” value [4] was “about 20 min”, the Cmax/dose [4] was 1.80±0.85 μmol/L per μmol/kg BW and the AUC0-tlast/dose [4] was 2.04±0.58 μmol×h/L per μmol/kg. It also gave a Tmax [4] of 21 ± 20.4 min.
With `O=S(=O)(c1ccc(O)cc1)c1ccc(O)cc1` [BPS, bisphenol S] the “part of the dose eliminated in urine” value ([3]; 3 h after dosing) was “About half” and the “unconjugated compound in urine, fraction of IV dose” value ([3]; IV BPA and BPS doses) was 0.027±0.0084%.
For `O=C([O-])[C@H]1O[C@@H](Oc2ccc(S(=O)(=O)c3ccc(O)cc3)cc2)[C@H](O)[C@@H](O)[C@@H]1O.[Na+]` [BPSG, Bis(4-hydroxyphenyl) Sulfone O-β-D-Glucuronide-Sodium Salt], the “tvK25, rate constant liver to plasma for the glucuronide, Mean” value [1] was 66.6 h⁻¹, the “tvK50, glucuronide elimination rate constant from plasma to urine, Mean” value [1] was 1.818 h⁻¹ and the “tvK56, distribution rate constant, Mean” value [1] was 0.730 h⁻¹. The “tvK65, distribution rate constant, Mean” value [1] was 0.006 h⁻¹, the “tvK105, rate constant of glucuronide formed by enterocytes absorbed into the systemic circulation, Mean” value [1] was 0.534 h⁻¹ and the “tvK25, rate constant liver to plasma for the glucuronide, Median” value [1] was 62.147 h⁻¹. For the same molecule, the “tvK50, glucuronide elimination rate constant from plasma to urine, Median” value [1] was 1.832 h⁻¹, the “tvK56, distribution rate constant, Median” value [1] was 0.655 h⁻¹ and the “tvK65, distribution rate constant, Median” value [1] was 0.006 h⁻¹. For the same molecule, the “tvK105, rate constant of glucuronide formed by enterocytes absorbed into the systemic circulation, Median” value [1] was 0.523 h⁻¹, the “mean volume of the central compartment” value [1] was 0.14 L/kg and the “tvV, volume of the central compartment, Mean” value [1] was 0.135 L/kg. The “tvV, volume of the central compartment, Median” value [1] was 0.137 L/kg, the Cmax/dose [2] was 2.94±4.78 μmol/L per μmol/kg BW and the AUClast/dose [2] was 2.87±0.99 μmol×h/L per μmol/kg BW. The Tmax [2] was 43.8 ± 18 min, the “fraction of the IV BPSG dose recovered in urine, range” value ([3]; 24 h post dosing, IV BPSG) was 40.1–69.8% and the “mean fraction of the IV BPSG dose recovered in urine” value ([3]; 24 h post dosing, IV BPSG) was 59.0±9.96%. For the same molecule, the “fraction of parent dose recovered … mean±SD” value [3, 5] was 76.8±20.1%, the “fraction of parent dose recovered … range” value ([3]; IV BPA or BPS dosing) was 36.3–107.9% and the “fraction of parent dose recovered … mean±SD” value [3, 6] was 86.5±23.9%. For the same molecule, the “fraction of parent dose recovered … range” value ([3]; oral BPA or BPS dosing) was 65.5–126.8%, the “time after which plasma concentrations were below the LOQ” value [4] was 8 to 12 h and the “time of maximal plasma glucuronide concentration” value [4] was “about 20 min”. For the same molecule, the Cmax/dose [4] was 2.55±0.58 μmol/L per μmol/kg BW, the AUC0-tlast/dose [4] was 2.59±0.77 μmol×h/L per μmol/kg and the Tmax [4] was 17.4 ± 11.4 min.
